# Patent US20160115540A1, “PRODRUGS AND DRUGS” (Biogen MA Inc., priority 2013, published 2016)
# Where a name gives a salt, the structure may show the parent alone.
# System: blood and tissues
# Experiment: Transcriptional profiling, multi-dosing regimen, naïve mice: blood and other tissues
# Type: in vivo
# Settings: for Number of differentially expressed genes identified: Cerebellum / Number of differentially expressed genes identified: Lymph Node / Number of differentially expressed genes identified: Whole blood: Table 13: Naïve, Single Dose (so in the source), 12 h after last dosing
# Description: In vivo, DMF is rapidly metabolized to monomethyl fumarate (MMF). […] Animals were exposed to CO2 and whole blood collected via cardiac puncture. Two 100 μl aliquots of whole blood were collected in 1.5 mL microcentrifuge tubes and snap frozen in liquid nitrogen. Peripheral (liver, spleen, kidney and jejunum) and CNS brain (cerebellum, hippocampus, striatum and cortex) tissues were harvested and snap frozen in liquid nitrogen, with special care taken to collect tissues of similar size and from the same location. All samples were stored at -80° C. until RNA extraction was conducted. For RNA preparation, frozen tissues were placed in 2 mL RNAse-free 96-well blocks with 1.5 mL QIAzol Lysis Reagent (QIAgen) and a 3.2 mm stainless steel bead (BioSpec Products, Bartlesville, Okla.). Tissues were disrupted for four cycles of 45 seconds in a Mini-Beadbeater (Biospec Products). RNA was extracted in chloroform and the aqueous phase was mixed with an equal volume of 70% ethanol. Extracted RNA was applied to RNeasy 96 plates and purified by the spin method according to the manufacturer's protocol (RNeasy 96 Universal Tissue Protocol, QIAgen, Hilden Germany). 50 ul of snap frozen mouse blood was re-suspended in lysis buffer with proteinase K and arrayed into deep-well plates for automated RNA extraction. RNA extractions were completed on […] (Beckman Coulter, Indianapolis, Ind.) using Agencourt RNAdvance Blood kit (Part number A35604) according to the manufacturer's specifications. RNA integrity was assessed using the HT RNA reagent kit (Part number 760410, Caliper Life Sciences, Hopkinton, Mass.) using a LabChip GX (PerkinElmer, Waltham, Mass.). RNA samples with a RQS score of >8.0 were considered high quality for downstream microarray processing. […] Two micrograms of biotin labeled […] probe were hybridized to Affymetrix GeneChip Affymetrix HT_MG-430_PM plate arrays with modified conditions as described in […] et al. Washing and staining of the hybridized arrays were completed as described in the GeneChip Expression analysis technical manual for HT plate arrays using the Genechip® Array Station (Affymetrix, Santa Clara, Calif.) with modifications as described in […] et al. The processed GeneChip® plate arrays were scanned using GeneTitan scanner (Affymetrix, Santa Clara, Calif.). Affymetrix scans were subject to quality control (QC) measures. These tests included a visual inspection of the distribution of raw signal intensities and an assessment of RNA degradation, relative log expression (RLE), and normalized unsealed standard error (NUSE). All sample scans that passed these QC metrics were included in the analysis. All CEL files were subjected to GC-content-based Robust Multi-array Average (GCRMA) normalization (version 2.20.0) (Irizarry R A, et al. Nucleic Acids Res 2003; 31:e15; Li C, et al. Genome Biol 2001; 2:[…]0032). […] Stat Appl Genet Mol Biol 2004; 3:Article3). […] Springer Science+Business Media 2005). Changes in gene expression were studied by applying a linear modeling approach to fit gene expression levels according to the defined groups of samples (e.g. DMF-, MMF-, and Vehicle-treated animals) and Bayesian posterior error analysis as implemented by Smyth (Smyth G K. Stat Appl Genet Mol Biol 2004; 3:Article3). The comparisons considered included: DMF-vs-MMF, DMF-vs-Vehicle, and MMF-vs-Vehicle. […] Very few DEGs are observed in blood and tissues derived from the central nervous system (brain, cerebellum, cortex, striatum, and spinal cord).
# [1] = CEREBELLUM, 100MMF-vs-Veh, naïve multidose
# [2] = LYMPH NODE, 100MMF-vs-Veh, naïve multidose
# [3] = WHOLE BLOOD, 100MMF-vs-Veh, naïve multidose
# [4] = CEREBELLUM, 100DMF-vs-Veh, naïve multidose
# [5] = LYMPH NODE, 100DMF-vs-Veh, naïve multidose
# [6] = WHOLE BLOOD, 100DMF-vs-100MMF, naïve multidose
smiles,measurement,setting,value
"COC(=O)/C=C/C(=O)O [MMF, monomethyl fumarate]",FC,"1447339_PM_at (no gene symbol), WHOLE BLOOD, 100MMF-vs-Veh",2.49
same,FC 1110021J02Rik (1419892_PM_at),[1],1.56
same,FC 9430064I24Rik (1442912_PM_at),[1],1.86
same,FC Aox1 (1419435_PM_at),[1],1.54
same,FC Apold1 (1441228_PM_at),[1],1.95
same,FC Cntn2 (1456962_PM_at),[1],1.98
same,FC D130062J21Rik (1446929_PM_at),[1],1.66
same,FC Kat2b (1450821_PM_at),[1],−1.68
same,FC Lrrc50 (1421974_PM_at),[1],1.61
same,FC Pcsk1n (1416965_PM_at),[1],1.50
same,FC Prr15 (1452473_PM_at),[1],1.53
same,FC Slc35a5 (1423457_PM_at),[1],−1.50
same,FC Sox12 (1439754_PM_at),[1],1.67
same,FC Tm6sf2 (1425079_PM_at),[1],1.85
same,FC probe 1442605_PM_at (no gene symbol),[1],−1.75
same,FC probe 1446131_PM_at (no gene symbol),[1],1.78
same,FC,"Csf1 1460220_PM_a_at, WHOLE BLOOD, 100MMF-vs-Veh",1.75
same,FC,"Csrp3 1460318_PM_at, WHOLE BLOOD, 100MMF-vs-Veh",1.52
same,FC,"Egr3 1436329_PM_at, WHOLE BLOOD, 100MMF-vs-Veh",−1.60
same,FC,"Gstm1 1416416_PM_x_at, WHOLE BLOOD, 100MMF-vs-Veh",1.59
same,FC Gtf2ird1 (1460364_PM_at),[2],1.56
same,FC Npas2 (1421037_PM_at),[2],1.75
same,FC Nqo1 (1423627_PM_at),[2],1.74
same,FC,"Lpl 1415904_PM_at, WHOLE BLOOD, 100MMF-vs-Veh",2.65
same,FC,"Pla2g7 1430700_PM_a_at, WHOLE BLOOD, 100MMF-vs-Veh",1.76
same,FC,"Slc27a2 1416316_PM_at, WHOLE BLOOD, 100MMF-vs-Veh",−1.93
same,Number of differentially expressed genes identified: Cerebellum,90 mpk MMF-vs-Vehicle,15
same,Number of differentially expressed genes identified: Lymph Node,90 mpk MMF-vs-Vehicle,3
same,Number of differentially expressed genes identified: Whole blood,90 mpk MMF-vs-Vehicle,11
same,FC,"Tnfaip2 1416273_PM_at, WHOLE BLOOD, 100MMF-vs-Veh",1.81
same,FC,"Tnfaip2 1438855_PM_x_at, WHOLE BLOOD, 100MMF-vs-Veh",1.52
same,FC,"Trf 1425546_PM_a_at, WHOLE BLOOD, 100MMF-vs-Veh",1.56
same,FC A230048O21Rik (1458051_PM_at),[3],1.53
same,FC Aco1 (1456728_PM_x_at),[3],−2.14
same,FC Adamts20 (1456901_PM_at),[3],−1.69
same,FC Adora2a (1460710_PM_at),[3],1.66
same,FC Ankrd33b (1453782_PM_at),[3],−1.64
same,FC Anks1b (1460449_PM_at),[3],−1.56
same,FC Armcx2 (1456739_PM_x_at),[3],−1.76
same,FC Ascc3 (1457069_PM_at),[3],−1.61
same,FC B3galnt2 1454842_PM_a_at,[3],−1.86
same,FC B3galt1 (1455234_PM_at),[3],−1.50
same,FC Cno 1459783_PM_s_at,[3],−1.77
same,FC Commd3 (1454642_PM_a_at),[3],−1.50
same,FC Cycs /// Gm10053 1456071_PM_a_at,[3],−1.64
same,FC D6Wsu116e (1456056_PM_a_at),[3],−1.74
same,FC Ddr1 (1456226_PM_x_at),[3],−1.58
same,FC Dnaja1 (1459835_PM_s_at),[3],−1.60
same,FC Eftud2 (1456107_PM_x_at),[3],−1.61
same,FC Eif4g2 (1452758_PM_s_at),[3],−1.91
same,FC Epc2 (1455317_PM_at),[3],−1.56
same,FC Fgd4 (1455337_PM_at),[3],−1.52
same,FC Fgfbp3 (1453006_PM_at),[3],−1.58
same,FC Gm8203 /// H2afz (1456032_PM_x_at),[3],−1.53
same,FC Gsto1 1456036_PM_x_at,[3],−1.64
same,FC Gtf3c3 (1454765_PM_at),[3],−1.82
same,FC Hecw1 (1456527_PM_at),[3],−1.55
same,FC Hspa1b 1452318_PM_a_at,[3],−1.57
same,FC Itga8 (1454966_PM_at),[3],−1.51
same,FC Kbtbd7 (1452700_PM_s_at),[3],−1.52
same,FC Kcnt2 (1459971_PM_at),[3],−1.73
same,FC Kctd3 1455816_PM_a_at,[3],−1.88
same,FC Lasp1 (1455470_PM_x_at),[3],−1.56
same,FC Lrrtm1 (1455883_PM_a_at),[3],−1.60
same,FC Lztr1 (1455928_PM_x_at),[3],−2.01
same,FC Matn2 (1455978_PM_a_at),[3],−2.07
same,FC Mrps23 (1459806_PM_x_at),[3],−1.56
same,FC Nr3c1 (1457635_PM_s_at),[3],−1.58
same,FC Odz2 (1457273_PM_at),[3],−1.53
same,FC Olfm1 (1455796_PM_x_at),[3],−1.65
same,FC Pcdh17 (1453070_PM_at),[3],−1.53
same,FC Pik3ca (1453134_PM_at),[3],−1.62
same,FC Pitrm1 (1456577_PM_x_at),[3],−1.68
same,FC Prcp (1452190_PM_at),[3],1.53
same,FC Ptpn12 (1455105_PM_at),[3],−1.54
same,FC Pvrl3 (1457257_PM_x_at),[3],−2.12
same,FC Qrsl1 (1456542_PM_s_at),[3],−1.67
same,FC Ralgapa2 (1455750_PM_at),[3],−1.74
same,FC Ric8 (1455809_PM_x_at),[3],−1.56
same,FC Rnf112 (1456108_PM_x_at),[3],−1.57
same,FC Rp2h (1454816_PM_at),[3],−1.51
same,FC Snx16 (1456041_PM_at),[3],−1.78
same,FC Sos2 (1452281_PM_at),[3],−1.56
same,FC Surf4 (1455822_PM_x_at),[3],−1.56
same,FC Tceb1 1452593_PM_a_at,[3],−1.52
same,FC Tmed10 (1454688_PM_x_at),[3],−1.52
same,FC Tnik (1458403_PM_at),[3],−1.58
same,FC Tra2a (1454725_PM_at),[3],−1.65
same,FC Trim23 (1456089_PM_at),[3],−1.71
same,FC Ubr3 (1460455_PM_at),[3],−1.63
same,FC Wdr6 (1455940_PM_x_at),[3],−1.50
same,FC Wtap (1454805_PM_at),[3],−1.57
same,FC probe 1452426_PM_x_at (no gene symbol),[3],−1.56
same,FC probe 1455603_PM_at (no gene symbol),[3],−1.71
same,FC probe 1457494_PM_at (no gene symbol),[3],−1.53
same,FC probe 1458639_PM_at (no gene symbol),[3],1.51
same,FC probe 1459409_PM_at (no gene symbol),[3],1.71
"COC(=O)/C=C/C(=O)OC [DMF, dimethyl fumarate]",FC,"1110020A21Rik 1439574_PM_at, WHOLE BLOOD, 100DMF-vs-Veh",−1.77
same,FC,"8430427H17Rik 1428284_PM_at, WHOLE BLOOD, 100DMF-vs-Veh",−1.73
same,FC 1110021J02Rik (1419892_PM_at),[4],1.54
same,FC Aox1 (1419435_PM_at),[4],1.60
same,FC Apold1 (1441228_PM_at),[4],1.85
same,FC Cnnm3 (1420481_PM_at),[4],1.62
same,FC Prr15 (1452473_PM_at),[4],1.80
same,FC Rapgef4 (1421622_PM_a_at),[4],−1.55
same,FC Tgm2 (1437277_PM_x_at),[4],1.51
same,FC probe 1457266_PM_at (no gene symbol),[4],1.51
same,FC Ccl6 (1420249_PM_s_at),[5],1.66
same,FC Ccl17 (1419413_PM_at),[5],−1.57
same,FC Nqo1 (1423627_PM_at),[5],1.95
same,FC Nts (1422860_PM_at),[5],2.72
same,FC,"Parm1 1424214_PM_at, WHOLE BLOOD, 100DMF-vs-Veh",−1.68
same,FC,"Pla2g7 1430700_PM_a_at, WHOLE BLOOD, 100DMF-vs-Veh",1.65
same,FC,"Slc27a2 1416316_PM_at, WHOLE BLOOD, 100DMF-vs-Veh",−2.37
same,Number of differentially expressed genes identified: Cerebellum,100 mpk DMF-vs-90 mpk MMF,0
same,Number of differentially expressed genes identified: Lymph Node,100 mpk DMF-vs-90 mpk MMF,0
same,Number of differentially expressed genes identified: Whole blood,100 mpk DMF-vs-90 mpk MMF,0
same,Number of differentially expressed genes identified: Cerebellum,100 mpk DMF-vs-Vehicle,8
same,Number of differentially expressed genes identified: Lymph Node,100 mpk DMF-vs-Vehicle,4
same,Number of differentially expressed genes identified: Whole blood,100 mpk DMF-vs-Vehicle,5
same,FC 2610001J05Rik (1448002_PM_x_at),[6],−4.35
same,FC 8430408G22Rik (1433836_PM_a_at),[6],1.78
same,FC A730017C20Rik (1437528_PM_x_at),[6],1.56
same,FC Aco1 (1456728_PM_x_at),[6],1.56
same,FC Cadm2 (1435146_PM_s_at),[6],1.50
same,FC Cdk7 (1424257_PM_at),[6],1.73
same,FC Cherp (1436885_PM_a_at),[6],1.53
same,FC Neo1 (1447694_PM_x_at),[6],−3.98
